Laboratory results as given in PubChem BioAssay AID179 (DTP/NCI, 2004).
The source made the active and inactive calls.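 How the source made its calls: active means compounds giving half or more protection of infected cells from virus-caused growth loss, again on retest; inactive means the rest.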

Test system: CEM cells HIV-1 protection, formazan growth assay
Assay: NCI AIDS Antiviral Assay
Details: for IC50: measured here: growth of uninfected CEM cells
Procedure, shortened: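 Category rules: moderately active means at least 50% protection on retest, and confirmed active means 100% protection reproducibly. The underlying data came from a formazan growth assay in HIV-1-infected CEM cells.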

O=C(Nc1ccc(F)cc1)C(=O)C(C1OC(=O)c2ccccc21)[N+](=O)[O-] (stereo not drawn)
EC50: > 692 µM
IC50: 355 µM

O=C1OC(c2cccc3ccc(Br)cc23)c2ccccc21 (stereo not drawn)
EC50: 27.5 µM
IC50: 52.5 µM

c1ccc(C2SCc3nc4cc5ccccc5cc4n32)cc1 (stereo not drawn)
EC50: > 200 µM
IC50: > 200 µM

OC1=CN=COc2ccccc21
EC50: > 813 µM
IC50: 479 µM

O=C1NC(=O)C(CN2C(=O)/C(=C/c3cccc(O)c3)SC2=S)C(=O)N1
EC50: > 200 µM
IC50: 91.2 µM

O=S(=O)(O)c1cccc(N=Nc2ccc(N=Nc3ccc(Nc4ccccc4)c4c(S(=O)(=O)O)cccc34)c3ccccc23)c1
EC50: 155 µM
IC50: > 200 µM

C=CCOC1(CC=C)C(=O)OC2C(O)COC21O (stereo not drawn)
EC50: > 200 µM
IC50: > 200 µM

CCOC(=O)NC(=O)c1cn(CCN2CCN(c3ncnc4nc[nH]c34)CC2)c(=O)[nH]c1=O
outcome: inactive

COc1ccc(S(=O)(=O)NC(C)C(=O)O)cc1 (stereo not drawn)
outcome: inactive

CC1(C)OP(=O)(c2ccccc2)C=C1Br (stereo not drawn)
EC50: > 200 µM
IC50: > 200 µM

NNC(=O)/C(=C/c1ccc(Cl)c(Cl)c1)NC(=O)c1ccccc1
EC50: > 141 µM
IC50: > 141 µM

CC(C)c1ccc(C(c2ccc(OCC(=O)NCCN(C)C)cc2)c2ccc(C(C)C)cc(=O)c2O)c(O)c(=O)c1
outcome: inactive

Fc1ccc(C2SCc3nc4ccccc4n32)cc1Cl (stereo not drawn)
EC50: > 72.4 µM
IC50: 25.7 µM

O=C1OCc2cc[n+]([O-])cc21
EC50: > 1660 µM
IC50: > 1660 µM

CCCC/C=C(/C(O)[C@]1(C)OC(=O)N2CCC[C@H]21)[Si](C)(C)C (stereo partly drawn)
EC50: > 759 µM
IC50: > 759 µM

CP(=O)(O)C(N)c1ccccc1 (stereo not drawn)
EC50: > 200 µM
IC50: > 200 µM

CCn1c(-c2ccc(C)cc2)cs/c1=N\C(P(=O)(O)O)P(=O)(O)O
EC50: > 50.1 µM
IC50: > 50.1 µM

C=CCOc1cccc(C2(O)c3ccccc3C3=NCCCN32)c1 (stereo not drawn)
EC50: > 200 µM
IC50: 37.2 µM

COC(=O)c1c[nH]cc1CCCCc1c[nH]cc1C(=O)OC
outcome: inactive

COc1c(Cl)cc(Cc2cc(C(=CCC[C@H]3CC[C@@]4(C)[C@@H](CC[C@@H]5[C@@H]4CC[C@]4(C)[C@@H](C(C)CCCC(C)C)CC[C@@H]54)C3)c3cc(Cc4cc(Cl)c(OC)c(C(=O)O)c4)c(OC)c(C(=O)O)c3)cc(C(=O)O)c2OC)cc1C(=O)O (stereo partly drawn)
EC50: 16.2 µM
IC50: 107 µM

Fc1cccc(F)c1C1SCc2nc3cc(Cl)c(Cl)cc3n21 (stereo not drawn)
EC50: 120 µM
IC50: 195 µM

O=S(=O)(OCCSS(=O)(=O)c1ccccc1)c1ccccc1
EC50: > 437 µM
IC50: > 437 µM

CN(C)CCCN1C(=S)N(CCCN(C)C)c2c3cc(O)ccc3nc3c([N+](=O)[O-])ccc1c23
EC50: > 2 µM
IC50: 0.417 µM

Cc1ccc(S(=O)(=O)Sc2nnnn2C)cc1
EC50: > 251 µM
IC50: 53.7 µM

c1ccc(SCc2ccc3c(c2)OCO3)cc1
EC50: > 77.6 µM
IC50: > 77.6 µM

CCCCSCc1nc2ccccc2c(C)[n+]1[O-]
EC50: 234 µM
IC50: 437 µM

O[C@H]1[C@H](O)[C@@H](Cn2nnc(-c3ccccc3)c2-c2ccccc2)OCO[C@@H]1Cn1nnc(-c2ccccc2)c1-c1ccccc1
EC50: > 200 µM
IC50: 9.55 µM

Nc1cn(C2OC(CC(c3ccccc3)(c3ccccc3)c3ccccc3)C(O)C2O)c(=O)[nH]c1=O (stereo not drawn)
EC50: > 138 µM
IC50: 28.8 µM

CCOC(=O)NC(C(=O)OCC)C(F)(F)F (stereo not drawn)
EC50: > 200 µM
IC50: 102 µM

CCOc1ccc(NC(=O)/C(CC(=O)c2sc(Nc3ccc(C)cc3)nc2C)=N\NC(N)=S)cc1
EC50: > 200 µM
IC50: > 200 µM

Cc1nn2c(C(=O)O)nnc2s1
EC50: > 200 µM
IC50: > 200 µM

O=C1CNc2cc(N3CCCCC3)ccc2N1
EC50: > 200 µM
IC50: 66.1 µM

Cc1ccc(-c2oc(C=Nc3ccccc3)c([N+](=O)[O-])c2-c2ccc(C)cc2)cc1
EC50: > 200 µM
IC50: > 200 µM

OCC1(CNc2cc(Cl)ncn2)CCC1
EC50: > 200 µM
IC50: > 200 µM

CCCCCCCCCCCC1=C(NCCN)C(=O)C=C(NCCN)C1=O
EC50: > 2 µM
IC50: > 2 µM

Cc1ccc(CC2(C(=O)O)Cc3ccc(C)cc3C2)cc1 (stereo not drawn)
EC50: > 200 µM
IC50: 57.5 µM

CCOC(=O)C1=NN(c2ccccc2)C(=O)/C1=C\n1ccc(=O)[nH]c1=S
outcome: inactive

COc1cc(/C=C/c2nc(N)nnc2C)cc(OC)c1OC
EC50: > 200 µM
IC50: 2.82 µM

O=c1cc(CC(O)(C(F)(F)Cl)C(F)(F)Cl)[nH]n1-c1ccccc1
EC50: > 200 µM
IC50: 117 µM

NC(=S)Nc1[nH]c(=S)nc2c1SC1=N/C(=C\c3ccco3)C(=O)N12
EC50: > 200 µM
IC50: 81.3 µM

CC(=O)O[C@]1(C)C(=O)OC2C1C(OC(=O)C=C(C)C)C[C@](C)(OC(C)=O)[C@H]1[C@H](O)C=C(C)[C@@H]21 (stereo partly drawn)
EC50: > 269 µM
IC50: 10 µM

CC(C)C(/C=C/c1ccc(Cl)cc1)=N\NC(=O)N/N=C(/C=C/c1ccc(Cl)cc1)C(C)C
EC50: > 100 µM
IC50: > 100 µM

C=C1c2nc3ccccc3n2C=C(c2ccccc2)N1c1ccc(OC)cc1
EC50: > 200 µM
IC50: 12.9 µM

CCN(C(=O)N[C@@H](Cc1ccccc1)C(=O)N[C@@H](CC(C)C)C(=O)OC)c1ccccc1
EC50: 5.01 µM
IC50: 28.8 µM

COCN1CCC2N(COC)CCC3N(COC)CCC1N23 (stereo not drawn)
outcome: inactive

Nc1nc(Cl)c(Cl)nc1C(=O)O
EC50: > 200 µM
IC50: 117 µM

O=C(C=Nc1ccccc1C(=O)[O-])c1cccs1.O=C(C=Nc1ccccc1C(=O)[O-])c1cccs1.[Zn+2]
outcome: inactive

C1=C\SS/C=C\SS/C=C\SS/C=C\SS/1
EC50: 12.9 µM
IC50: 15.1 µM

CCCCCCCC/C=C\CCCCCCCCOP(=O)(O)OCCC=C(c1cc(Cl)c(O)c(C(=O)O)c1)c1cc(Cl)c(O)c(C(=O)O)c1
EC50: > 77.6 µM
IC50: 69.2 µM

Cc1no[n+]([O-])c1/C=N/NS(=O)(=O)c1ccccc1
EC50: > 891 µM
IC50: 407 µM

C1CSCCSCSCCS1
EC50: > 44.7 µM
IC50: > 44.7 µM

O=C1CCC(c2ccccc2)CCN1 (stereo not drawn)
outcome: inactive

O=C1CCC(=O)N1n1c(Cc2ccccc2)n[nH]c1=O
EC50: > 200 µM
IC50: > 200 µM

C=CCN1CCC(O)(c2cc(C(=O)OCC)[nH]c2-c2cc(C)no2)C1 (stereo not drawn)
EC50: > 200 µM
IC50: > 200 µM

C[C@H]1[C@@H](c2ccccc2)C12C(=O)NC(=O)NC2=O
EC50: > 200 µM
IC50: 105 µM

O=P(O)(O)Cc1c(Cl)c(Cl)c(CP(=O)(O)O)c(Cl)c1Cl
EC50: > 200 µM
IC50: > 200 µM

C=CCC(C(=O)OCC)C1NCCc2c1[nH]c1ccccc21 (stereo not drawn)
EC50: > 45.7 µM
IC50: > 45.7 µM

CC1(C)COP(Oc2ccccc2)OC1
EC50: > 200 µM
IC50: > 200 µM

Cc1ccnc(NC(NC(=O)c2ccccc2)(C(F)(F)F)C(F)(F)F)c1
outcome: inactive

O=C(Nc1nc2c(=O)[nH]cnc2s1)c1ccccc1
EC50: > 200 µM
IC50: > 200 µM

CN(C)CCCSCCOc1nccc(-c2ccc(-c3ccc(-c4ccnc(OCCSCCCN(C)C)n4)s3)s2)n1
EC50: 1.1 µM
IC50: 2.75 µM

CCCCCCCCCCCCCCCCCCN1C(=O)c2ccccc2[Se]1=O (stereo not drawn)
EC50: > 0.813 µM
IC50: > 0.813 µM

CC12C=C[C@]3(CC[C@@H]4[C@@](C)(CO)CCC[C@]4(C)C3CC1)C2 (stereo partly drawn)
outcome: inactive

CCN1CCC(O)(/C=C/c2ccc(OC)cc2)C(C(=O)/C=C/c2ccc(OC)cc2)C1 (stereo not drawn)
EC50: > 479 µM
IC50: > 479 µM
